Values quoted from earlier work, collected in patent publication US20140194454A1, “COMBINATIONS OF TROSPIUM AND SALIVARY STIMULANTS FOR THE TREATMENT OF OVERACTIVE BLADDER” (TheraVida, Inc., priority 2011, published 2014).

Settings: 5 mg of pilocarpine

Q: Which “time of maximum saliva output after administration” value does the source give for `CC[C@@H]1C(=O)OC[C@@H]1Cc1cncn1C` [pilocarpine] here?
A: about 30 minutes
